According to ChEMBL document CHEMBL6074690, “Development and Characterization of a High-Affinity Selective Galectin-3 Mouse Tool Compound in Mouse Models of Cancer” (J Med Chem, 2024):

Key:
[1] = Apparent permeability across basal to apical side in human Caco-2 cells at 10 uM incubated for 90 mins by LC-MS/MS analysis; type: ADME, cell-based
[2] = Intrinsic clearance in human hepatocytes measured per million cells at 2 uM incubated for 15 to 120 mins by LC-MS/MS analysis; type: ADME, cell-based, Hepatocyte; conditions: time 15-120 min, read-out: CLH
[3] = Apparent permeability across apical to basal side in human Caco-2 cells at 10 uM incubated for 90 mins by LC-MS/MS analysis; type: ADME, cell-based
[4] = Intrinsic clearance in mouse hepatocytes measured per million cells at 2 uM incubated for 15 to 120 mins by LC-MS/MS analysis; type: ADME, cell-based, Hepatocyte; conditions: time 15-120 min, read-out: CLH
[5] = Lipophilicity, log D of compound in potassium phosphate buffer/octanol at pH 7.4 by shake flask method; type: physicochemical
[6] = Unbound drug level in C57BL/6 mouse at 30 mg/kg, po measured for 12 hrs; type: ADME, organism-based; conditions: in vivo

OC[C@H]1O[C@@H](Sc2cncc(Br)c2)[C@H](O)[C@@H](n2cc(-c3cc(F)c(F)c(F)c3)nn2)[C@H]1O
Papp B→A at […], 10 µM [1]: 30 ×10⁻⁶ cm/s
hepatocyte CLint at 2 µM [2]: 0.15 µL/min/1e6 cells
hepatocyte CLint at 2 µM [4]: 1.1 µL/min/1e6 cells
logD [5]: 3

OC[C@H]1O[C@@H](Sc2cncc(Br)c2)[C@H](O)[C@@H](n2cc(-c3cc(F)c(Cl)c(F)c3)nn2)[C@H]1O
Papp B→A at […], 10 µM [1]: 17 ×10⁻⁶ cm/s
Drug uptake(free) [6]: Active
hepatocyte CLint at 2 µM [4]: 0.6 µL/min/1e6 cells
logD [5]: > 4

OC[C@H]1O[C@@H](Sc2ccc(Cl)c(Cl)c2)[C@H](O)[C@@H](n2cc(-c3cc(F)c(F)c(F)c3)nn2)[C@H]1O
hepatocyte CLint at 2 µM [2]: 0.7 µL/min/1e6 cells
hepatocyte CLint at 2 µM [4]: 0.8 µL/min/1e6 cells
logD [5]: 4.6
